Reference: patent US20240279239A1, “COMPOUNDS AND METHODS FOR MODULATING SPLICING” (REMIX THERAPEUTICS INC., priority 2020, published 2024)
Structures can show the parent of a compound that is named as a salt. Where two headings read alike, the source gives them in different places.

Columns and labels:
Assay type in all cases: cell-based
[1] = system: HTT; assay: RT-qPCR canonical junction panel assay, HTT; conditions: gene panel, read-out: HTT IC50 (decrease in CJ mRNA levels)
Method: (§1) Example 44: Exemplary splicing assay for monitoring expression levels of splice variants Compounds described herein were used to modulate RNA transcript abundance in cells. The expression of a target mRNA was measured by detecting the formation of an exon-exon junction in the canonical transcript (CJ). A compound mediated exon-inclusion event was detected by observing an increase in formation of a new junction with an alternative exon (AJ). Real-time qPCR assays were used to detect these splicing switches and interrogate the potency of various compounds towards different target genes. A high-throughput real time quantitative PCR (RT-qPCR) assay was developed to measure these two isoforms of the mRNA (CJ and AJ) for an exemplary gene, HTT, together with a control housekeeping gene, GAPDH or GUSB or PPIA, used for normalization. Briefly, the A673 or K562 cell line was treated with various compounds described herein (e.g., compounds of Formula (I)). After treatment, the levels of the HTT mRNA targets were determined from each sample of cell lysate by cDNA synthesis followed by qPCR.
(§2) The A673 cell line was cultured in DMEM with 10% FBS. Cells were diluted with full growth media and plated in a 96-well plate (15,000 cells in 100 µl media per well). The plate was incubated at 37° C. with 5% CO2 for 24 hours to allow cells to adhere. An 11-point 3-fold serial dilution of the compounds was made in DMSO then diluted in media in an intermediate plate. Compounds were transferred from the intermediate plate to the cell plate with the top dose at a final concentration of 10 uM in the well. Final DMSO concentration was kept at or below 0.25%. The cell plate was returned to the incubator at 37° C. with 5% CO2 for an additional 24 hours.
(§3) The K562 cell line was cultured in IMDM with 10% FBS. For K562, cells were diluted with full growth media and plated in either a 96-well plate (50,000 cells in 50 uL media per well) or a 384-well plate (8,000-40,000 cells in 45 uL media per well). An 11-point 3-fold serial dilution of the compounds were made in DMSO then diluted in media in an intermediate plate. Compound was transferred from the intermediate plate to the cell plate with the top dose at a final concentration of 10 uM in the well. Final DMSO concentration was kept at or below 0.25%. Final volume was 100 uL for 96-well plate and 50 uL for 384-well plate. The cell plate was then placed in an incubator at 37° C. with 5% CO2 for 24 hours.
(§4) The cells were then gently washed with 50 uL-100 uL cold PBS before proceeding to addition of lysis buffer. 30 uL-50 uL of room temperature lysis buffer with DNAse I (and optionally RNAsin) was added to each well. Cells were shaken/mixed thoroughly at room temperature for 5-10 minutes for lysis to take place and then 3 uL-5 uL of room temperature stop solution was added and wells were shaken/mixed again. After 2-5 minutes, the cell lysate plate was transferred to ice for RT-qPCR reaction setup. The lysates could also be frozen at ˜80° C. for later use.
(§5) In some cases, a direct lysis buffer was used. An appropriate volume of 3× lysis buffer (10 mM Tris, 150 mM NaCl, 1.5%-2.5% Igepal and 0.1-1 U/uL RNAsin, pH 7.4) was directly added to either K562 or A673 cells in media and mixed by pipetting 3 times. The plates were then incubated at room temperature with shaking/rocking for 20-50 minutes to allow for lysis to take place. After this time, the cell lysate plate was transferred to ice to set up for the RT-qPCR reactions. The lysates could also be frozen at −80° C. for later use.
(§6) To set up 10 uL RT-qPCR reactions, cell lysates were transferred to 384-well qPCR plates containing the master mix according to the table below. The plates were sealed, gently vortexed, and spun down before the run. The volumes were adjusted accordingly in some instances where the reaction was carried in 20 uL. The table below summarizes the components of the RT-qPCR reactions: […]

[2] = system: SMN2; assay: RT-qPCR canonical junction panel assay, SMN2; conditions: gene panel, read-out: SMN2 IC50 (decrease in CJ mRNA levels)
Method: as §1, §2, §3, §4, §5, §6

[3] = system: HTT; assay: RT-qPCR splicing assay for HTT mRNA isoforms (canonical junction CJ and alternative junction AJ); conditions: A673 or K562 cell line, 24 hours treatment
Method: as §1, §2, §3, §4, §5, §6

[4] = system: Target C; assay: RT-qPCR canonical junction panel assay, Target C; conditions: gene panel, read-out: Target C IC50 (decrease in CJ mRNA levels)
Method: as §1, §2, §3, §4, §5, §6

[5] = decrease in CJ mRNA levels, read-out: HTT CJ AC50
[6] = increase in AJ mRNA, read-out: HTT AJ AC50

Row | Structure (SMILES) | IC50 [1] [nM] | IC50 [2] [nM] | AC50 [3, 5] [nM] | AC50 [3, 6] [nM] | IC50 [4] [nM]
1 | Cc1cn2cc(-c3nn4c(=O)cc(N5CCN(C)C6(CC6)C5)nc4s3)cc(F)c2n1 [Compound 218, 2-(8-fluoro-2-methylimidazo[1,2-α]pyridin-6-yl)-7-(4-methyl-4,7-diazaspiro[2.5]octan-7-yl)-5H-[1,3,4]thiadiazolo[3,2-α]pyrimidin-5-one] | 1000 to 10000 | 1000 to 10000 | 1000 to 10000 | 1000 to 10000 | 1000 to 10000
2 | Cn1cc2cc(-n3cnc4nc(N5CCNCC5)sc4c3=O)ccc2n1 [Compound 225, 6-(2-methyl-2H-indazol-5-yl)-2-(piperazin-1-yl)thiazolo[4,5-d]pyrimidin-7(6H)-one] | > 10000 | > 10000 | > 10000 | > 10000 | > 10000
3 | Cc1cn2cc(-n3cnc4nc(N5CCNCC5)sc4c3=O)cc(F)c2n1 [Compound 226, 6-(8-fluoro-2-methylimidazo[1,2-α]pyridin-6-yl)-2-(piperazin-1-yl)thiazolo[4,5-d]pyrimidin-7(6H)-one] | 100 to 1000 | 100 to 1000 | 100 to 1000 | 100 to 1000 | 100 to 1000
4 | Cc1cn2cc(-n3cnc4nc(N(C)C5CC(C)(C)NC(C)(C)C5)sc4c3=O)cc(F)c2n1 [Compound 227, 6-(8-fluoro-2-methylimidazo[1,2-α]pyridin-6-yl)-2-(methyl(2,2,6,6-tetramethylpiperidin-4-yl)amino)thiazolo[4,5-d]pyrimidin-7(6H)-one, formate] | > 10000 | > 10000 | > 10000 | > 10000 | > 10000
5 | Cc1cn2cc(-n3cnc4nc(N5CCN(C)CC5)sc4c3=O)cc(F)c2n1 [Compound 228, 6-(8-fluoro-2-methylimidazo[1,2-α]pyridin-6-yl)-2-(4-methylpiperazin-1-yl)thiazolo[4,5-d]pyrimidin-7(6H)-one] | 1000 to 10000 | 1000 to 10000 | 1000 to 10000 | 1000 to 10000 | 1000 to 10000
6 | Cc1cn2cc(-n3cnc4nc(N5CCNCC5)sc4c3=O)cc(C(F)(F)F)c2n1 [Compound 229, 6-(2-methyl-8-(trifluoromethyl)imidazo[1,2-α]pyridin-6-yl)-2-(piperazin-1-yl)thiazolo[4,5-d]pyrimidin-7(6H)-one] | > 10000 | > 10000 | > 10000 | > 10000 | > 10000
7 | Cc1cn2cc(-n3cnc4nc(N5CCN(C)CC5)sc4c3=O)cc(C(F)(F)F)c2n1 [Compound 230, 6-(2-methyl-8-(trifluoromethyl)imidazo[1,2-α]pyridin-6-yl)-2-(4-methylpiperazin-1-yl)thiazolo[4,5-d]pyrimidin-7(6H)-one] | > 10000 | > 10000 | > 10000 | > 10000 | > 10000
8 | Cc1cn2nc(-c3nc4ncn(C5CCNCC5)c(=O)c4s3)cc(C)c2n1 [Compound 231, 2-(2,8-dimethylimidazo[1,2-b]pyridazin-6-yl)-6-(piperidin-4-yl)thiazolo[4,5-d]pyrimidin-7(6H)-one] | 100 to 1000 | 1000 to 10000 | 100 to 1000 | 100 to 1000 | 1000 to 10000
9 | Cc1cn2cc(-c3nc4ncn(C5CCNCC5)c(=O)c4s3)cc(F)c2n1 [Compound 232, 2-(8-fluoro-2-methylimidazo[1,2-α]pyridin-6-yl)-6-(piperidin-4-yl)thiazolo[4,5-d]pyrimidin-7(6H)-one] | < 100 | < 100 | < 100 | < 100 | 100 to 1000
10 | Cc1cc(-c2nc3ncn(C4CCNCC4)c(=O)c3s2)cc2cn(C)nc12 [Compound 233, 2-(2,7-dimethyl-2H-indazol-5-yl)-6-(piperidin-4-yl)thiazolo[4,5-d]pyrimidin-7(6H)-one] | < 100 | < 100 | < 100 | < 100 | 100 to 1000
11 | Cc1cc(-c2nc3ncn(C4CCN(C)CC4)c(=O)c3s2)cc2cn(C)nc12 [Compound 234, 2-(2,7-dimethyl-2H-indazol-5-yl)-6-(1-methylpiperidin-4-yl)thiazolo[4,5-d]pyrimidin-7(6H)-one] | 100 to 1000 | < 100 | 100 to 1000 | 100 to 1000 | 1000 to 10000
12 | Cc1cn2cc(-c3cc4ncn(C5CCNCC5)c(=O)c4s3)cc(F)c2n1 [Compound 235, 6-(8-fluoro-2-methylimidazo[1,2-α]pyridin-6-yl)-3-(piperidin-4-yl)thieno[3,2-d]pyrimidin-4(3H)-one] | < 100 | < 100 | < 100 | < 100 | 100 to 1000
13 | Cc1cc(-c2cc3ncn(C4CCNCC4)c(=O)c3s2)cc2cn(C)nc12 [Compound 236, 6-(2,7-dimethyl-2H-indazol-5-yl)-3-(piperidin-4-yl)thieno[3,2-d]pyrimidin-4(3H)-one] | < 100 | < 100 | < 100 | 100 to 1000 | 100 to 1000
14 | Cc1cc(-c2cc3ncn(C4CCN(C)CC4)c(=O)c3s2)cc2cn(C)nc12 [Compound 237, 6-(2,7-dimethyl-2H-indazol-5-yl)-3-(1-methylpiperidin-4-yl)thieno[3,2-d]pyrimidin-4(3H)-one] | 100 to 1000 | < 100 | 100 to 1000 | 100 to 1000 | 1000 to 10000
15 | Cc1cn2nc(-c3cc4ncn(C5CCNCC5)c(=O)c4s3)cc(C)c2n1 [Compound 238, 6-(2,8-dimethylimidazo[1,2-b]pyridazin-6-yl)-3-(piperidin-4-yl)thieno[3,2-d]pyrimidin-4(3H)-one] | 100 to 1000 | < 100 | 100 to 1000 | 100 to 1000 | 1000 to 10000
16 | Cc1cn2nc(-c3cc4ncn(C5CCN(C)CC5)c(=O)c4s3)cc(C)c2n1 [Compound 239, 6-(2,8-dimethylimidazo[1,2-b]pyridazin-6-yl)-3-(1-methylpiperidin-4-yl)thieno[3,2-d]pyrimidin-4(3H)-one] | 1000 to 10000 | < 100 | 1000 to 10000 | 1000 to 10000 | > 10000
